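Interpolation was linear, between the two tested concentrations surrounding the appropriate level; five concentrations were tested over 48 hours in 96-well plates. GI50: concentration for 50% inhibition of growth.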 Active and inactive are the calls of the source. No stated cut-off is given here; in the data, active = GI50 up to about 1.1 µM and inactive = higher.
Columns and labels:
Assay in all cases: DTP human tumour cell line panel, 48 h
RPMI-8226 = tested on: RPMI-8226
SN12C = tested on: SN12C
Hs-578T = tested on: Hs-578T
BT-549 = tested on: BT-549
OVCAR-3 = tested on: OVCAR-3
HT-29 = tested on: HT-29
HCC 2998 = tested on: HCC 2998
OVCAR-5 = tested on: OVCAR-5
NCI-H226 = tested on: NCI-H226
OVCAR-4 = tested on: OVCAR-4
K562 = tested on: K562
PC-3 = tested on: PC-3
LOX IMVI = tested on: LOX IMVI
MDA-N = tested on: MDA-N
DU-145 = tested on: DU-145
MOLT-4 = tested on: MOLT-4
MDA-MB-231 = tested on: MDA-MB-231
U-251 = tested on: U-251
IGROV-1 = tested on: IGROV-1
CAKI-1 = tested on: CAKI-1
EKVX = tested on: EKVX
SK-MEL-5 = tested on: SK-MEL-5
M14 = tested on: M14
SK-OV-3 = tested on: SK-OV-3
UACC-62 = tested on: UACC-62
HOP-92 = tested on: HOP-92
SF-539 = tested on: SF-539
SNB-19 = tested on: SNB-19
TK-10 = tested on: TK-10
NCI/ADR-RES = tested on: NCI/ADR-RES
NCI-H23 = tested on: NCI-H23
NCI-H460 = tested on: NCI-H460
NCI-H522 = tested on: NCI-H522
ACHN = tested on: ACHN
UO-31 = tested on: UO-31
SK-MEL-2 = tested on: SK-MEL-2
MCF7 = tested on: MCF7
Malme-3M = tested on: Malme-3M
SF-295 = tested on: SF-295
786-0 = tested on: 786-0
MDA-MB-435 = tested on: MDA-MB-435
HCT-116 = tested on: HCT-116
HCT-15 = tested on: HCT-15
SF-268 = tested on: SF-268
A498 = tested on: A498
KM12 = tested on: KM12
COLO 205 = tested on: COLO 205
A549 = tested on: A549
UACC-257 = tested on: UACC-257
SK-MEL-28 = tested on: SK-MEL-28
SW-620 = tested on: SW-620
OVCAR-8 = tested on: OVCAR-8
T47D = tested on: T47D
SR = tested on: SR
CCRF-CEM = tested on: CCRF-CEM
SNB-75 = tested on: SNB-75
HL-60 = tested on: HL-60
RXF 393 = tested on: RXF 393
HOP-62 = tested on: HOP-62

Measured: GI50

O=c1[nH]nc(Cc2ccccc2)n1CCO
> 100 µM: HCT-15
inactive: RPMI-8226 > 100 µM | SN12C > 100 µM | Hs-578T > 100 µM | BT-549 > 100 µM | OVCAR-3 > 100 µM | HT-29 > 100 µM | HCC 2998 > 100 µM | OVCAR-5 > 100 µM | NCI-H226 > 100 µM | OVCAR-4 > 100 µM | K562 > 100 µM | PC-3 > 100 µM | LOX IMVI > 100 µM | MDA-N > 100 µM | DU-145 > 100 µM | MOLT-4 > 100 µM | MDA-MB-231 > 100 µM | U-251 > 100 µM | IGROV-1 > 100 µM | CAKI-1 > 100 µM | EKVX > 100 µM | SK-MEL-5 > 100 µM | M14 > 100 µM | SK-OV-3 > 100 µM | UACC-62 > 100 µM | HOP-92 > 100 µM | SF-539 > 100 µM | SNB-19 > 100 µM | TK-10 > 100 µM | NCI/ADR-RES > 100 µM | NCI-H23 > 100 µM | NCI-H460 > 100 µM | NCI-H522 > 100 µM | ACHN > 100 µM | UO-31 > 100 µM | SK-MEL-2 > 100 µM | MCF7 > 100 µM | Malme-3M > 100 µM | SF-295 > 100 µM | 786-0 > 100 µM | MDA-MB-435 > 100 µM | HCT-116 > 100 µM | SF-268 > 100 µM | A498 > 100 µM | KM12 > 100 µM | COLO 205 > 100 µM | A549 > 100 µM | UACC-257 > 100 µM | SK-MEL-28 > 100 µM | SW-620 > 100 µM | OVCAR-8 > 100 µM | T47D > 100 µM

O=c1[nH]c(Nc2nc3ccccc3[nH]2)nc(O)c1Cc1ccccc1
inactive: RPMI-8226 > 100 µM | SN12C > 100 µM | Hs-578T 56 µM | BT-549 > 100 µM | HT-29 > 100 µM | NCI-H226 > 100 µM | OVCAR-4 > 100 µM | K562 > 100 µM | PC-3 > 100 µM | MDA-N > 100 µM | DU-145 > 100 µM | MOLT-4 > 100 µM | SR > 100 µM | MDA-MB-231 > 100 µM | U-251 56.8 µM | IGROV-1 > 100 µM | CAKI-1 > 100 µM | EKVX > 100 µM | CCRF-CEM > 100 µM | SK-MEL-5 > 100 µM | M14 > 100 µM | UACC-62 > 100 µM | SF-539 > 100 µM | SNB-19 67.8 µM | TK-10 > 100 µM | NCI/ADR-RES > 100 µM | NCI-H23 > 100 µM | SNB-75 24 µM | NCI-H460 > 100 µM | NCI-H522 > 100 µM | ACHN 61 µM | UO-31 > 100 µM | SK-MEL-2 > 100 µM | Malme-3M > 100 µM | 786-0 61.5 µM | MDA-MB-435 > 100 µM | HCT-116 > 100 µM | HL-60 > 100 µM | SF-268 > 100 µM | A498 > 100 µM | KM12 > 100 µM | COLO 205 > 100 µM | A549 > 100 µM | UACC-257 > 100 µM | SK-MEL-28 > 100 µM | SW-620 > 100 µM | OVCAR-8 > 100 µM | T47D > 100 µM
active: HOP-92 0.193 µM
> 100 µM: HCT-15

O=C(O)C(Cc1cc(I)c(O)c(I)c1)C1CCCCC1 (stereo not given)
inactive: SN12C 32.2 µM | Hs-578T 27.9 µM | BT-549 34.5 µM | OVCAR-3 15.6 µM | HT-29 30.8 µM | HCC 2998 27.2 µM | OVCAR-5 49.2 µM | NCI-H226 61.5 µM | OVCAR-4 59.6 µM | K562 66.2 µM | PC-3 18.3 µM | LOX IMVI 34 µM | MDA-N 43.5 µM | DU-145 33 µM | MOLT-4 28.4 µM | SR 33.1 µM | MDA-MB-231 21.8 µM | U-251 22.3 µM | IGROV-1 27.5 µM | CAKI-1 30.6 µM | EKVX 31.9 µM | CCRF-CEM 51.1 µM | SK-MEL-5 22.4 µM | M14 45.5 µM | UACC-62 33.1 µM | HOP-92 33.5 µM | SNB-19 35.6 µM | TK-10 24 µM | NCI/ADR-RES 37.4 µM | NCI-H23 24 µM | SNB-75 37.6 µM | NCI-H460 18.1 µM | NCI-H522 29.3 µM | ACHN 30.3 µM | UO-31 45.7 µM | Malme-3M 37.7 µM | SF-295 35.6 µM | 786-0 51.9 µM | MDA-MB-435 60.8 µM | RXF 393 34.2 µM | HCT-116 26.5 µM | SF-268 36.2 µM | A498 21.3 µM | KM12 30.4 µM | A549 31.9 µM | HOP-62 24.5 µM | UACC-257 45.3 µM | SK-MEL-28 59.7 µM | SW-620 58.9 µM | OVCAR-8 38.6 µM | T47D 29.9 µM
31.7 µM: HCT-15
